Values of other authors, collected in patent publication US20220184030A1, “N-Phenylacetyl-L-prolylglycine ethyl ester compositions and methods for using the same” (priority 2020, published 2022).
Where two headings read alike, the source gives them in different places. Residues, ends and D or L forms follow the SMILES beside them. *: point of attachment. PhAc = O=C(Cc1ccccc1)*

Key:
[1] = users
[2] = not given; remark: listed apart in the source

Structure (SMILES): C=C(C)[C@@H]1CCC(C)=C[C@H]1c1c(O)cc(CCCCC)cc1O [CBD, cannabidiol]
- tolerance or addiction to the compound [1]: neither noopept nor CBD has been shown to cause the user to become tolerant or addicted
- tolerance to the nootropic effects [1]: generally do not develop a tolerance
- side effects (humans who consume effective doses): generally does not cause significant side effects

Structure (SMILES): CCOC(=O)CNC(=O)[C@@H]1CCCN1C(=O)Cc1ccccc1 [noopept, N-Phenylacetyl-L-prolylglycine ethyl ester] (PhAc-Pro-Gly-OEt)
- tolerance or addiction to the compound [1]: neither noopept nor CBD has been shown to cause the user to become tolerant or addicted
- tolerance to the nootropic effects [1]: generally do not develop a tolerance
- side effects (healthy human subjects, compared with piracetam): fewer side effects
- effective dose relative to the effective dose of piracetam ([2]; versus piracetam): over 50 times smaller in mass
- effective dose compared with racetams (in words) ([2]; versus some racetams, such as piracetam): smaller effective dose than some racetams
